Experimental data from paper PMC9908594, “Biochemical characterization and identification of ferulenol and embelin as potent inhibitors of malate:quinone oxidoreductase from Campylobacter jejuni” (Frontiers in Molecular Biosciences, 2023).
Values joined by “and” are separate entries in the source; they are usually repeats but may differ in a detail not shown here. Equal values may be shown once. Read-outs that look alike come from different tables or passages of the source.

Key:
human dermal fibroblast = system: human dermal fibroblast; design: method as in Hartuti et al., 2018; details: ref Hartuti et al., 2018, read-out: Cytotoxicity IC50; cited from earlier work
C. jejuni ATCC29428 = experiment: C. jejuni growth inhibition, resazurin assay; type: cell-based, Campylobacter jejuni; details: for IC50: Mueller Hinton broth, 24 h, microaerophilic, 37°C, resazurin
CjMQO [1] = target: T1, CjMQO (Campylobacter jejuni, UniProt P56954); experiment: Inhibition mechanism of CjMQO (mixed-model fit, Lineweaver-Burk); type: biochemical; details: for K i versus UQ1: malate fixed (10 mM); for Inhibition type versus UQ1 (quinone): NC: noncompetitive; for K i versus malate: UQ1 fixed (50 μM)
Procedure: The inhibition mechanism of the two compounds were investigated as described in a previous study ([Acharjee et al., 2021]). First, the inhibition mechanism versus UQ1 was assayed separately in a reaction mixture containing 50 mM MOPS pH 7.0, 1 mM KCN and 0.2 μg/mL of purified CjMQO containing a range of different ferulenol (0, 0.01, 0.02, and 0.04 μM) and embelin (0, 0.05, 0.1, and 0.15 μM) concentrations. Enzyme activity was measured at varying concentrations of UQ1 (5, 10, 20, 50, and 100 μM) and the reaction was initiated with 10 mM malate. Second, the inhibition mechanism versus malate was determined at 50 μM of UQ1, and the reaction was initiated with varying concentrations of malate (5, 10, 15, and 20 mM) and monitored at 278 nm, in singlets. The steady-state kinetics parameters, in the presence of inhibitors, were used to produce the Lineweaver-Burk plot. Next, the data were fitted to a mixed-type inhibition equation by a nonlinear-regression method using GraphPad Prism software. The intercept and slope from the primary plot (Lineweaver-Burk plot), were replotted as a function of the inhibitor. Finally, additional analysis was performed based on Dixon and Cornish Bowden plots in addition to the plot of Lineweaver-Burk to differentiate the types of inhibition mechanisms.

[2] = system: DLD-1 (colon cancer-derived); design: method as in Hartuti et al., 2018; details: ref Hartuti et al., 2018, read-out: Cytotoxicity IC50; cited from earlier work
[3] = target: CjMQO (malate:quinone oxidoreductase from C. jejuni) (Campylobacter jejuni, UniProt P56954); experiment: biochemical; type: biochemical; details: 50 mM MOPS pH 7.0, 100 μM UQ1, 1 mM KCN, 0.2 μg/mL CjMQO, 10 mM malate; read-out: IC50 on purified CjMQO
[4] = system: Panc-1 (pancreatic cancer-derived); design: method as in Hartuti et al., 2018; details: ref Hartuti et al., 2018, read-out: Cytotoxicity IC50; cited from earlier work
TgMQO [5] = system: TgMQO; design: method as in Acharjee et al., 2021; details: previously reported; ref Acharjee et al., 2021; cited from earlier work
[6] = target: PfMQO (P. falciparum MQO) (Plasmodium falciparum, UniProt C6KT09); design: method as in Hartuti et al., 2018; details: previously reported; ref Hartuti et al., 2018; cited from earlier work
Chain of PfMQO (P. falciparum MQO) (C6KT09 entry or part of it): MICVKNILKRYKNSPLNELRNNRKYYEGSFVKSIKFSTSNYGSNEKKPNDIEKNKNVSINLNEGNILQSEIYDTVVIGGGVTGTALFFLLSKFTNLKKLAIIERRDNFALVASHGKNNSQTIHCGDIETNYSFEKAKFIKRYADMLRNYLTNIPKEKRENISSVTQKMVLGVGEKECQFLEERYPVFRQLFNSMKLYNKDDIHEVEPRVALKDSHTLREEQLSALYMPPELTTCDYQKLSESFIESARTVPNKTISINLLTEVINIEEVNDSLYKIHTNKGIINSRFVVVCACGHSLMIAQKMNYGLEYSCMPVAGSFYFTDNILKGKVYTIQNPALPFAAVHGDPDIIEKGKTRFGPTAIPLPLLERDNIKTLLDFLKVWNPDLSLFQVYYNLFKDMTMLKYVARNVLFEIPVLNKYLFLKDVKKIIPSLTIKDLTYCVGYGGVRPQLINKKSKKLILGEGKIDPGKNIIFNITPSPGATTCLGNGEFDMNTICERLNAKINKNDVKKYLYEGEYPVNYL

CjMQO [7] = target: T1, CjMQO; experiment: Steady-state kinetics of purified CjMQO for substrates; type: biochemical; details: for V max / k cat / k cat /K m / K m for ubiquinone: UQ varied, malate fixed 10 mM; for K m for ubiquinone: pH 7.0, 37°C; for K m for malate: malate varied
Procedure: (§1) The steady-state kinetic parameters of CjMQO were determined for malate and ubiquinone (UQ) with different side chain length (UQ0, UQ1, UQ2, UQ4, and dUQ; Supplementary Figure S3). The reaction mixture contained UQ, 1% (v/v) ethanol, 50 mM MOPS, 1 mM KCN and 0.2 μg/mL of purified CjMQO at the optimal pH (pH 7.0) and physiological temperature (37°C). The reduction of quinones was measured through the decrease in the absorbance at 278 nm ( ε278= 15 mM^-1 cm^-1). The Michaelis constant (K m) and maximum velocity (V max) of CjMQO for UQs were determined by varying the concentrations of UQs from 0.1 to 100 μM with the malate concentration fixed at 10 mM.
(§2) Next, K m and V max of CjMQO for malate were determined by varying the concentrations from 0.5 to 50 mM at fixed concentrations of different UQs (100 μM for UQ0 and UQ1 and 10 μM for dUQ and UQ2). The apparent steady-state kinetic parameters were calculated by Michaelis-Menten equation using GraphPad Prism software (ver. 9.3.1, GraphPad Software, Inc., San Diego, California, United States). Following the protocol previously described for TgMQO ([Acharjee et al., 2021]), the reaction mechanism of CjMQO was analysed using malate and UQ1 as substrates. Briefly, CjMQO activity was measured at different UQ1 concentrations (2, 5, 10, 20, and 50 μM) with malate concentrations fixed at 0.5, 2, and 5 mM; the data were then analysed using a double reciprocal plot (Lineweaver-Burk plot) produced by utilizing intercept and slope calculated from steady-state kinetics parameters obtained by fitting the data to Michalis-Menten equation with GraphPad Prism software. The type of reaction mechanism was determined based on the characteristics of the lines plotted in the double reciprocal plot.

TgMQO [8] = system: TgMQO; design: method as in Acharjee et al., 2021; details: ref Acharjee et al., 2021, cited from earlier work
human fibroblasts = system: human fibroblasts; design: method as in Feresin et al., 2003; details: ref Feresin et al., 2003, read-out: Toxic concentration IC50; cited from earlier work
PfMQO = system: PfMQO; design: method as in Hartuti et al., 2018; details: for dUQ; ref Hartuti et al., 2018; cited from earlier work
[9] = substrate: O=C(O)CC(O)C(=O)O; experiment: Steady-state kinetics of purified CjMQO for substrates; type: biochemical; details: other: malate varied, pH 7.0, 37.0 °C
Procedure: as §1, §2

[10] = substrate: COC1=C(OC)C(=O)C(CC=C(C)C)=C(C)C1=O; experiment: as above; type: biochemical; details: pH 7.0, 37.0 °C
Procedure: as §1, §2

[11] = substrate: CCCCCCCCCCC1=C(C)C(=O)C(OC)=C(OC)C1=O; experiment: as above; type: biochemical; details: other: UQ varied, malate fixed 10 mM; pH 7.0; 37.0 °C
Procedure: as §1, §2

[12] = other: UQ varied, malate fixed 10 mM

## CC(C)=CCC/C(C)=C/CC/C(C)=C/Cc1c(O)c2ccccc2oc1=O [Ferulenol, ferulenol]
Human dermal fibroblast
  IC50: 65800 nM
C. jejuni ATCC29428
  IC50: 600 nM
CjMQO [1]; UQ1 varied, malate fixed
  K m (apparent, mixed-model fit): 42 ± 5 µM
  V max (apparent, mixed-model fit): 133 ± 7 µmol/min/mg
  α versus UQ1 (quinone): 1.04
  Inhibition type versus UQ1 (quinone): noncompetitive
CjMQO [1]; UQ1 varied
  K i versus UQ1: 20 nM
CjMQO [1]; malate varied, UQ1 fixed
  Inhibition type versus malate: Mixed
  K m (apparent, mixed-model fit): 1,845 ± 201 μM
  V max (apparent, mixed-model fit): 70 ± 2 µmol/min/mg
  α versus malate: 2.66
CjMQO [1]; malate varied
  K i versus malate: 10 nM
CjMQO [1]; malate varied, UQ1 fixed, listed as ferulenol
  Inhibition type versus malate: mixed-type
[2]
  IC50: 50100 nM
[3]
  IC50: 18 nM
[4]
  IC50: 50200 nM
TgMQO [5]
  IC50: 822 nM
[6]
  IC50: 57 nM

## COC1=C(OC)C(=O)C(C)=CC1=O [UQ0]
CjMQO [7]
  V max: 49 µmol/min/mg and 49.0 ± 2.4 µmol/min/mg
  k cat: 219 ± 13.1 s⁻¹
  k cat /K m: 1.3e+06 M⁻¹ s⁻¹
  K m for ubiquinone: 168 µM and 168 ± 12.0 µM
TgMQO [8]
  K m of TgMQO for ubiquinone: 225 µM
  V max of TgMQO for ubiquinone: 13 µmol/min/mg

## COC1=C(OC)C(=O)C(C/C=C(\C)CCC=C(C)C)=C(C)C1=O [UQ2]
CjMQO [7]
  V max: 108 µmol/min/mg and 108 ± 10 µmol/min/mg
  k cat: 485 ± 42.0 s⁻¹
  k cat /K m: 1.07e+08 M⁻¹ s⁻¹
  K m for ubiquinone: 4.6 µM and 4.60 ± 1.0 µM

## COC1=C(OC)C(=O)C(C/C=C(\C)CC/C=C(\C)CC/C=C(\C)CCC=C(C)C)=C(C)C1=O [UQ4]
CjMQO [7]
  V max: 10 µmol/min/mg and 10.0 ± 1.0 µmol/min/mg
  k cat: 43.9 ± 11.4 s⁻¹
  k cat /K m: 5.3e+07 M⁻¹ s⁻¹
  K m for ubiquinone: 0.8 µM and 0.80 ± 0.2 µM
CjMQO [7]; possibly due to low solubility in the assay condition
  Concentration above which substrate inhibition was observed: > 2 µM

## CCCCCCCCCCCC1=C(O)C(=O)C=C(O)C1=O [Embelin, 2,5-dihydroxy-3-undecyl-p-benzoquinone]
C. jejuni ATCC29428; Campylobacter jejuni, ATCC29428
  IC50: 21000 nM
C. jejuni ATCC29428; at a concentration of 100 μM
  Inhibition of growth of C. jejuni ATCC29428: completely inhibited
CjMQO [1]; UQ1 varied, malate fixed
  K m (apparent, mixed-model fit): 47 ± 6.3 µM
  V max (apparent, mixed-model fit): 164 ± 11 µmol/min/mg
  α versus UQ1 (quinone): 0.998
  Inhibition type versus UQ1 (quinone): noncompetitive
CjMQO [1]; UQ1 varied
  K i versus UQ1: 140 nM
CjMQO [1]; malate varied, UQ1 fixed
  Inhibition type versus malate: Mixed
  K m (apparent, mixed-model fit): 2,225 ± 292 μM
  V max (apparent, mixed-model fit): 71 ± 3 µmol/min/mg
  α versus malate: 1.43
CjMQO [1]; malate varied
  K i versus malate: 100 nM
CjMQO [1]; malate varied, UQ1 fixed, listed as embelin
  Inhibition type versus malate: mixed-type
[3]
  IC50: 87 nM
Human fibroblasts
  IC50: 739000 nM

## O=C(O)CC(O)C(=O)O (stereo not drawn) [Malate, sodium malate]
CjMQO [7]; UQ0 fixed (100 μM)
  K m for malate: 298 ± 18 µM
CjMQO [7]; UQ0 fixed (100 μM), listed as malate
  K m for malate: 298 µM
CjMQO [7]; UQ1 fixed (100 μM)
  K m for malate: 882 ± 49 µM
CjMQO [7]; UQ1 fixed (100 μM), listed as malate
  K m for malate: 882 µM
CjMQO [7]; UQ2 fixed (10 μM)
  K m for malate: 1,031 ± 93 μM
CjMQO [7]; UQ2 fixed (10 μM), listed as malate
  K m for malate: 1,031 μM
CjMQO [7]; dUQ fixed (10 μM)
  K m for malate: 1,209 ± 160 μM
CjMQO [7]; dUQ fixed (10 μM), listed as malate
  K m for malate: 1,209 μM
PfMQO
  K m of PfMQO for malate: 5,990 μM
TgMQO [8]; in the presence of UQ1
  K m of TgMQO for malate: 370 µM
TgMQO [8]; in the presence of UQ2
  K m of TgMQO for malate: 637 µM
TgMQO [8]; in the presence of dUQ
  K m of TgMQO for malate: 466 µM

## CCCCCCCCCCC1=C(C)C(=O)C(OC)=C(OC)C1=O [dUQ, decylubiquinone]
CjMQO [7]
  K m for ubiquinone: 8.5 µM and 8.50 ± 2.0 µM
TgMQO [8]
  K m of TgMQO for ubiquinone: 17 µM
  V max of TgMQO for ubiquinone: 12 µmol/min/mg

## COC1=C(OC)C(=O)C(CC=C(C)C)=C(C)C1=O [UQ1]
CjMQO [7]
  K m for ubiquinone: 46 µM and 46.0 ± 3.1 µM
TgMQO [8]
  K m of TgMQO for ubiquinone: 116 µM
  V max of TgMQO for ubiquinone: 44 µmol/min/mg

B1: CjMQO (Campylobacter jejuni subsp. jejuni NCTC 11168 = ATCC 700819) (protein)
chain: MSQQEFDVLVIGAGISGAALFYELARYTNIKNIALIEKYNTAATLNSKGTSNSQTIHCGDIETNYTLEKARKVKRTADMIVKYGLMQNAQNNFMFSHQKMALAVGDIECDYMKKRYEEFKELYPYIKFFDKAKIKQIEPKVVLGEDCNQDRPENICAMGVESGEVFTTVDFGKMSINLIEQAQKQNKNTFVAFNQEIIHIEKKDDIFILKTSNHQEYHAKSVVVNAGAHSLYLAHKMNLGMDKSCWPVAGSFYLTKQKLLNGKVYMVQNPKLPFAALHGDPDLLADMNTRFGPTALVIPKLERYHGLKSVPEFFEALKLDKTVLKVTFNMFKDATIRNYIFYNYLFELPFVDKSLFVKDAKKIVPSLKASDIYYAKGFGGVRPQVIDKTKGELMLGEASITETPGIIFNMTPSPGATSCLGNAERDAKLVCNYLGMEFNEDKFSSELL
[9]; UQ0 fixed (100 μM)
  kcat: 67 ± 1.1 s⁻¹
  kcat/Km: 200000 M⁻¹ s⁻¹
[9]; UQ1 fixed (100 μM)
  kcat: 502 ± 55.6 s⁻¹
  kcat/Km: 600000 M⁻¹ s⁻¹
[9]; UQ2 fixed (10 μM)
  kcat: 389 ± 7.6 s⁻¹
  kcat/Km: 400000 M⁻¹ s⁻¹
[9]; dUQ fixed (10 μM)
  kcat: 210 ± 19.2 s⁻¹
  kcat/Km: 200000 M⁻¹ s⁻¹
[10]; [12]
  kcat: 480 ± 18.7 s⁻¹
  kcat/Km: 1.05e+07 M⁻¹ s⁻¹
[10]; other: malate fixed at 0.5 mM
  Km: 16.3 µM
[10]; other: malate fixed at 2 mM
  Km: 23.8 µM
[10]; other: malate fixed at 10 mM
  Km: 32.6 µM
[11]
  kcat: 343 ± 40.4 s⁻¹
  kcat/Km: 4.02e+07 M⁻¹ s⁻¹
